Source: patent US11753399B2, “Therapeutic compounds” (Gilead Sciences, Inc., priority 2018, dated 2023)
Where two headings read alike, the source gives them in different places.

What was measured:
[1] = system: HIV-IIIb; assay: Test A: Antiviral Assay in MT4 Cells; assay type: cell-based, HIV-1; details: for inhibition at 0.01 µM: read-out: % inhibition at 0.01 μM; for inhibition at 0.2 µM: read-out: % inhibition at 0.20 μM
Method: (§1) MT-4 cells were next mixed with HIV-IIIb at a multiplicity of infection (m.o.i.) of 0.003 for 1 hour, after which time 35 μL of virus/cell mixture (2000 cells) was immediately added to each well containing 40 μL of diluted compound. The plates were then incubated at 37° C. for 5 days. After 5 days of incubation, 25 μl of 2× concentrated CellTiter-Glo Reagent (catalog #G7571, Promega Biosciences, Inc., Madison, Wis.) was added to each well containing MT-4 cells. Cell lysis was carried out by incubating at room temperature for 10 min and then chemiluminescence was read.

[2] = Test B: Cytotoxicity Assay (same protocol as Test A, uninfected cells); assay type: cell-based; details: human, uninfected MT-4 cells, CellTiter-Glo
Method: as §1, with “read. […] Compound cytotoxicity and the corresponding CC50 values was determined using the same protocol as described in the antiviral assay (Test A) except that uninfected cells were used.” for “read.”

[3] = Human immunodeficiency virus 1, MT4, 120 h, inhibition of virus-induced cell killing, from dose response curve at 0.01 μM (10 nM), MT-4 cells, HIV-IIIb, 5 days, values normalized to 100%
[4] = Human immunodeficiency virus 1, MT4, 120 h, inhibition of virus-induced cell killing, from dose response curve at 0.20 μM (200 nM), MT-4 cells, HIV-IIIb, 5 days, values normalized to 100%
[5] = Human immunodeficiency virus 1, IIIB, MT4, 120 h

Structure (SMILES)	inhibition at 0.01 µM [1, 3] [%]	inhibition at 0.2 µM [1, 4] [%]	CC50 at 5 days [2] [µM]	inhibition at 0.01 µM [1, 5] [%]	inhibition at 0.2 µM [1, 5] [%]
Cn1nc(NS(C)(=O)=O)c2c(Cl)ccc(-c3ccc(C#CC(C)(C)S(=O)(=O)C4CC4)nc3[C@H](Cc3cc(F)cc(F)c3)NC(=O)Cn3nc(C(F)F)c(Br)c3C(F)F)c21 [Example 58]	95	95	> 57.1	–	–
CCS(=O)(=O)Nc1nn(CC(F)(F)F)c2c(-c3ccc(C#CC(C)(C)S(=O)(=O)C4CC4)nc3[C@H](Cc3cc(F)cc(F)c3)NC(=O)Cn3nc(C(F)(F)F)c4c3C(F)(F)[C@@H]3C[C@H]43)ccc(Cl)c12 [Example 67]	13	0	> 50	–	–
Cn1nc(NS(C)(=O)=O)c2c(Cl)ccc(-c3ccc(C#CC(C)(C)S(=O)(=O)C4CC4)nc3[C@H](Cc3cc(F)cc(F)c3)NC(=O)Cc3nc4ccccc4[nH]3)c21 [Example 54]	18	99	29.8	–	–
Cn1nc(NS(C)(=O)=O)c2c(Cl)ccc(-c3ccc(C#CC(C)(C)S(=O)(=O)C4CC4)nc3[C@H](Cc3cc(F)cc(F)c3)NC(=O)Cc3nnn[nH]3)c21 [Example 46]	0	10	> 54.6	–	–
Cn1nc(NS(C)(=O)=O)c2c(Cl)ccc(-c3ccc(C#CC(C)(C)S(=O)(=O)C4CC4)nc3[C@H](Cc3cc(F)cc(F)c3)NC(=O)Cn3cccn3)c21 [Example 50]	0	36	> 53.6	–	–
Cn1nc(Nc2nnc(C(C)(C)O)o2)c2c(Cl)ccc(-c3ccc(C#CC(C)(C)S(=O)(=O)C4CC4)nc3[C@H](Cc3cc(F)cc(F)c3)NC(=O)Cn3nc(C(F)(F)F)c4c3C(F)(F)[C@@H]3C[C@H]43)c21 [Example 3F, N—((S)-1-(3-(4-chloro-3-((5-(2-hydroxypropan-2-yl)-1,3,4-oxadiazol-2-yl)amino)-1-methyl-1H-indazol-7-yl)-6-(3-(cyclopropylsulfonyl)-3-methylbut-1-yn-1-yl)pyridin-2-yl)-2-(3,5-difluorophenyl)ethyl)-2-((3bS,4aR)-5,5-difluoro-3-(trifluoromethyl)-3b,4,4a,5-tetrahydro-1H-cyclopropa[3,4]cyclopenta[1,2-c]pyrazol-1-yl)acetamide]	100	100	21.8	–	–
Cn1nc(NS(C)(=O)=O)c2c(Cl)ccc(-c3ccc(C#CC(C)(C)S(=O)(=O)C4CC4)nc3[C@H](Cc3cc(F)cc(F)c3)NC(=O)Cn3ccnn3)c21 [Example 48]	0	0	> 57.1	–	–
CCS(=O)(=O)Nc1nn(C)c2c(-c3ccc(C#CC(C)(C)S(=O)(=O)C4CC4)nc3[C@H](Cc3cc(F)cc(F)c3)NC(=O)Cn3nc(C(F)F)c4c3C(F)(F)[C@@H]3C[C@H]43)ccc(Cl)c12 [Example 6]	100	100	> 57.1	–	–
Cn1nc(NS(C)(=O)=O)c2c(Cl)ccc(-c3ccc(C#CC(C)(C)S(=O)(=O)C4CC4)nc3[C@H](Cc3cc(F)cc(F)c3)NC(=O)Cn3nc(C(F)F)c(Cl)c3C(F)F)c21 [Example 56]	0	91	23.5	–	–
CC(C)(C#Cc1ccc(-c2ccc(Cl)c3c(NS(=O)(=O)CC4CC4)nn(CC(F)F)c23)c([C@H](Cc2cc(F)cc(F)c2)NC(=O)Cn2nc(C(F)(F)F)c3c2C(F)(F)[C@@H]2C[C@H]32)n1)S(=O)(=O)C1CC1 [Example 27]	100	100	> 57.1	–	–
Cn1nc(NS(C)(=O)=O)c2c(Cl)ccc(-c3ccc(C#CC(C)(C)S(=O)(=O)C4CC4)nc3[C@H](Cc3cc(F)cc(F)c3)NC(=O)Cn3cnc4ccccc43)c21 [Example 62]	56	93	30.7	–	–
CC(C)(C#Cc1ccc(-c2ccc(Cl)c3c(NS(C)(=O)=O)nn(CC(F)(F)F)c23)c([C@H](Cc2cc(F)cc(F)c2)NC(=O)Cn2nc(C(F)(F)F)c3c2C(F)(F)[C@@H]2C[C@H]32)n1)S(=O)(=O)C1CC1 [Example 68]	100	100	> 50	–	–
CC1(S(=O)(=O)Nc2nn(CC(F)(F)F)c3c(-c4ccc(C#CC(C)(C)S(=O)(=O)C5(C)CC5)nc4[C@H](Cc4cc(F)cc(F)c4)NC(=O)Cn4nc(C(F)(F)F)c5c4C(F)(F)[C@@H]4C[C@H]54)ccc(Cl)c23)CC1 [Example 32]	100	100	> 57.1	–	–
CC(C)(C#Cc1ccc(-c2ccc(Cl)c3c(NS(=O)(=O)C4CC4)nn(C4COC4)c23)c([C@H](Cc2cc(F)cc(F)c2)NC(=O)Cn2nc(C(F)F)c3c2C(F)(F)[C@@H]2C[C@H]32)n1)S(=O)(=O)C1CC1 [Example 41]	100	100	> 57.1	–	–
Cn1nc(Nc2nnc(C(C)(C)O)o2)c2c(Cl)ccc(-c3ccc(C#CC(C)(C)S(=O)(=O)C4CC4)nc3[C@H](Cc3cc(F)cc(F)c3)NC(=O)Cn3nc(C(F)F)c4c3C(F)(F)[C@@H]3C[C@H]43)c21 [Example 10]	100	100	18.5	–	–
Cn1nc(NS(=O)(=O)C2(C)CC2)c2c(Cl)ccc(-c3ccc(C#CC(C)(C)S(=O)(=O)C4CC4)nc3[C@H](Cc3cc(F)cc(F)c3)NC(=O)Cn3nc(C(F)F)c4c3C(F)(F)[C@@H]3C[C@H]43)c21 [Example 20]	89	89	> 57.1	–	–
CC(C)(C#Cc1ccc(-c2ccc(Cl)c3c(NS(C)(=O)=O)nn(C4COC4)c23)c([C@H](Cc2cc(F)cc(F)c2)NC(=O)Cn2nc(C(F)(F)F)c3c2C(F)(F)[C@@H]2C[C@H]32)n1)S(=O)(=O)C1CC1 [Example 19]	97	97	> 57.1	–	–
CC1(S(=O)(=O)Nc2nn(CC(F)F)c3c(-c4ccc(C#CC(C)(C)S(=O)(=O)C5CC5)nc4[C@H](Cc4cc(F)cc(F)c4)NC(=O)Cn4nc(C(F)F)c5c4C(F)(F)CCC5(F)F)ccc(Cl)c23)CC1 [Example 37]	92	92	> 57.1	–	–
CC(C)(C#Cc1ccc(-c2ccc(Cl)c3c(NS(C)(=O)=O)nn(CC(F)F)c23)c([C@H](Cc2cc(F)cc(F)c2)NC(=O)Cn2nc(C(F)F)c3c2C(F)(F)[C@@H]2C[C@H]32)n1)S(=O)(=O)C1CC1 [Example 8]	94	94	> 57.1	–	–
Cn1nc(NS(C)(=O)=O)c2c(Cl)ccc(-c3ccc(C#CC(C)(C)S(=O)(=O)C4CC4)nc3[C@H](Cc3cc(F)cc(F)c3)NC(=O)Cc3ncc[nH]3)c21 [Example 66]	61	97	11.7	–	–
CC1(S(=O)(=O)Nc2nn(CC(F)(F)F)c3c(-c4ccc(C#CC(C)(C)S(=O)(=O)C5CC5)nc4[C@H](Cc4cc(F)cc(F)c4)NC(=O)Cn4nc(C(F)(F)F)c5c4C(F)(F)[C@@H]4C[C@H]54)ccc(Cl)c23)CC1 [Example 29]	100	100	> 57.1	–	–
CC(C)(C#Cc1ccc(-c2ccc(Cl)c3c(NS(=O)(=O)C4CC4)nn(CC(F)(F)F)c23)c([C@H](Cc2cc(F)cc(F)c2)NC(=O)Cn2nc(C(F)(F)F)c3c2C(F)(F)[C@@H]2C[C@H]32)n1)S(=O)(=O)C1CC1 [Example 36]	93	93	> 57.1	–	–
CC(C)(C#Cc1ccc(-c2ccc(Cl)c3c(NS(=O)(=O)CC4CC4)nn(CC(F)F)c23)c([C@H](Cc2cc(F)cc(F)c2)NC(=O)Cn2nc(C(F)F)c3c2C(F)(F)[C@@H]2C[C@H]32)n1)S(=O)(=O)C1CC1 [Example 26]	100	100	> 57.1	–	–
CC1(S(=O)(=O)Nc2nn(CC(F)F)c3c(-c4ccc(C#CC(C)(C)S(=O)(=O)C5CC5)nc4[C@H](Cc4cc(F)cc(F)c4)NC(=O)Cn4nc(C(F)(F)F)c5c4C(F)(F)[C@@H]4C[C@H]54)ccc(Cl)c23)CC1 [Example 22]	94	94	> 57.1	–	–
Cn1nc(NS(=O)(=O)C2(C)CC2)c2c(Cl)ccc(-c3ccc(C#CC(C)(C)S(=O)(=O)C4CC4)nc3[C@H](Cc3cc(F)cc(F)c3)NC(=O)Cn3nc(C(F)(F)F)c4c3C(F)(F)[C@@H]3C[C@H]43)c21 [Example 21]	100	100	> 57.1	–	–
Cn1nc(NS(C)(=O)=O)c2c(Cl)ccc(-c3ccc(C#CC(C)(C)S(=O)(=O)C4CC4)nc3[C@H](Cc3cc(F)cc(F)c3)NC(=O)Cn3nc(C(F)F)c4c3C(F)(F)[C@@H]3C[C@H]43)c21 [Example 4]	–	–	–	92	92
